Data on 22 molecules can be found in US9255100B2 (BAYER INTELLECTUAL PROPERTY GMBH, priority 2010, dated 2016).

By IC50 is commonly meant the concentration that gives 50% inhibition.

A value given as a limit tells only on which side of the number the result lay.

The test has as its target T1, N-terminally GST-tagged human full length recombinant Mps-1 kinase (Homo sapiens, UniProt P33981).
T1 construct: N-terminally GST-tagged human full length recombinant Mps-1 kinase; purchased Invitrogen, Karslruhe, Germany PV4071
T1 sequence (P33981 1-857): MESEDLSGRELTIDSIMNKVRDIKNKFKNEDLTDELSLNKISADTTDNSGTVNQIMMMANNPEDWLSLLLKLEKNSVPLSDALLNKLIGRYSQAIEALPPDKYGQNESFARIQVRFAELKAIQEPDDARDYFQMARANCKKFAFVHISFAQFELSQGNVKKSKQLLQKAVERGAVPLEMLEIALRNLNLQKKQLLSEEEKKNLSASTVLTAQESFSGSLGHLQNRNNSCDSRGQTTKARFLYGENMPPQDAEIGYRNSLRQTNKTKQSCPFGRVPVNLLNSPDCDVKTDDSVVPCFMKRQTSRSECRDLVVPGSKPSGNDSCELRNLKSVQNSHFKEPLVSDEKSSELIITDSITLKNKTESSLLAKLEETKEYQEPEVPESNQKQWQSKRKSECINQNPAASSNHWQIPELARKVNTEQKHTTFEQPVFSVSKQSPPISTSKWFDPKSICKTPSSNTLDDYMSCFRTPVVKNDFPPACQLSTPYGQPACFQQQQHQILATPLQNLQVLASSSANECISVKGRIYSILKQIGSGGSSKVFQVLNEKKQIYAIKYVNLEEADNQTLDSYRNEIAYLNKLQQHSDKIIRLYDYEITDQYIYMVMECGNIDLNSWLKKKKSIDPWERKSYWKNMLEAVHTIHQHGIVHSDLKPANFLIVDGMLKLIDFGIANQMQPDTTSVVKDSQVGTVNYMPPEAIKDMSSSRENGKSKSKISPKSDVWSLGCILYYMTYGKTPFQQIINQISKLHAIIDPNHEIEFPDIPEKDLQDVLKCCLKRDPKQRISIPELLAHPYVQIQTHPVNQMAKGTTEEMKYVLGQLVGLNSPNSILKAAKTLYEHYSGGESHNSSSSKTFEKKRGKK
Kind of test: Mps-1 kinase assay (TR-FRET). It counts as biochemical. To be noted: Mps1 IC50 [nM], 10 μM ATP, 1 μM peptide substrate, 60 min at 22° C. In a few lines:
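Kinase activity of N-terminally GST-tagged full-length recombinant Mps-1, used at about 1 nM final and set within the linear range, was measured on a biotinylated peptide substrate. Phosphopeptide was detected by TR-FRET from Eu-anti-phospho(Ser/Thr) antibody to streptavidin-XLent after 1 h at 22° C.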
Background: TR-FRET usually uses a lanthanide donor and a delayed reading to cut background.
On to `CCNC(=O)c1ccc(-c2cnc3c(NCCN4CCOCC4)cc(Oc4ccccc4)nn23)cc1C` [Example 593, N-ethyl-2-methyl-4-(8-{[2-(morpholin-4-yl)ethyl]amino}-6-phenoxyimidazo[1,2-b]pyridazin-3-yl)benzamide], for which the IC50 worked out at 9 nM.

As to `Cc1cc(-c2cnc3c(NCCc4nnn[nH]4)cc(Oc4cccc(F)c4)nn23)ccc1C(=O)NC1CC1` [Example 511, N-cyclopropyl-4-[6-(3-fluoro-phenoxy)-8-{[2-(1H-tetrazol-5-yl)ethyl]amino}imidazo[1,2-b]pyridazin-3-yl]-2-methyl-benzamide], the IC50 amounted to 0.3 nM. For the molecule `Cc1cc(-c2cnc3c(NCC4CCS(=O)(=O)CC4)cc(Oc4ccc(Cl)cc4)nn23)ccc1C(=O)NC1CC1` [Example 294A, 4-[6-(4-chlorophenoxy)-8-{[(1,1-dioxidotetrahydro-2H-thiopyran-4-yl)methyl]amino}imidazo[1,2-b]pyridazin-3-yl]-N-cyclopropyl-2-methylbenzamide], the IC50 came out at 0.3 nM. Under `Cc1cc(-c2cnc3c(NCC(O)CO)cc(Oc4cccc(F)c4)nn23)ccc1C(=O)NC1CC1` (stereo not shown) [Example 491, N-cyclopropyl-4-{8-[(2,3-dihydroxypropyl)amino]-6-(3-fluorophenoxy)imidazo [1,2-b]pyridazin-3-yl}-2-methylbenzamide] stands 0.1 nM; under `Cc1cc(-c2cnc3c(NCCC(F)(F)F)cc(Nc4ccccc4F)nn23)ccc1C(=O)NC1CC1` [Example 369, N-cyclopropyl-4-{6-[(2-fluorophenyl)amino]-8-[(3,3,3-trifluoropropyl)amino]imidazo[1,2-b]pyridazin-3-yl}-2-methylbenzamide], 0.1 nM.

Regarding `CCNC(=O)c1ccc(-c2cnc3c(NCCC(F)(F)F)cc(Oc4ccc(OC)c(F)c4)nn23)cc1C` [Example 604, N-ethyl-4-{6-(3-fluoro-4-methoxyphenoxy)-8-[(3,3,3-trifluoropropyl)a-mino]imidazo[1,2-b]pyridazin-3-yl}-2-methylbenzamide], the IC50 is less than 1 nM. For `Cc1cc(-c2cnc3c(NCCC(F)(F)F)cc(Oc4ccc(F)nc4)nn23)ccc1C(=O)NC1CC1` [Example 436, N-cyclopropyl-4-{6-[(6-fluoropyridin-3-yl)oxy]-8-[(3,3,3-trifluoropropyl)amino]imidazo[1,2-b]pyridazin-3-yl}-2-methylbenzamide] the value was 0.1 nM; for `CSc1cc(NCC(C)(C)O)c2ncc(-c3ccc(C(=O)NC4CC4)c(C)c3)n2n1` [Example 15, N-cyclopropyl-4-{8-[(2-hydroxy-2-methylpropyl)amino]-6-(methylsulfanyl)imidazo[1,2-b]pyridazin-3-yl}-2-methylbenzamide], 21.5 nM.

For `Cc1cc(-c2cnc3c(NCC(C)(C)N4CCOCC4)cc(Oc4cccc(F)c4)nn23)ccc1C(=O)NC1CC1` [Example 498, N-cyclopropyl-4-[6-(3-fluoro-phenoxy)-8-{[2-methyl-2-(morpholin-4-yl)propyl]amino}imidazo[1,2-b]pyridazin-3-yl]-2-methylbenzamide], the IC50 was 0.3 nM.

With `CNC(=O)c1ccc(-c2cnc3c(NCCOC)cc(Oc4ccccc4)nn23)cc1C` [Example 587, 4-{8-[(2-methoxyethyl)amino]-6-phenoxyimidazo[1,2-b]pyridazin-3-yl}-N,2-dimethylbenzamide], the IC50 was 3.2 nM.

Consider `Cc1cc(-c2cnc3c(NCC(C)C)cc(SCC4CCCO4)nn23)ccc1C(=O)NC1CC1` (racemic) [Example 194, (RS)—N-cyclopropyl-2-methyl-4-{8-[(2-methylpropyl)amino]-6-[(tetrahydrofuran-2-ylmethyl)sulfanyl]imidazo[1,2-b]pyridazin-3-yl}benzamide], for which the half-maximal inhibitory concentration (IC50) came to 2.5 nM. Consider `CC(C)(O)CNc1cc(-c2ccccc2)nn2c(-c3ccc(C(=O)NC4CC4)cc3)cnc12` [Example 14, N-cyclopropyl-4-{8-[(2-hydroxy-2-methylpropyl)amino]-6-phenylimidazo[1,2-b]pyridazin-3-yl}benzamide], for which the half-inhibitory concentration (IC50) was determined as 1.2 nM.

As for `Cc1cc(-c2cnc3c(NCCC(F)(F)F)cc(-c4ccccc4CO)nn23)ccc1C(=O)NC1CC1` [Example 20, N-cyclopropyl-4-{6-[2-(hydroxymethyl)phenyl]-8-[(3,3,3-trifluoropropyl)amino]imidazo[1,2-b]pyridazin-3-yl}-2-methylbenzamide], the half-maximal inhibitory concentration (IC50) was determined as 1.2 nM. With `Cc1cc(-c2cnc3c(NCCCN4CCOCC4)cc(Oc4cccc(F)c4)nn23)ccc1C(=O)NC1CC1` [Example 506, N-cyclopropyl-4-[6-(3-fluoro-phenoxy)-8-{[3-(morpholin-4-yl)propyl]amino}imidazo[1,2-b]pyridazin-3-yl]-2-methyl-benzamide], the IC50 is 0.1 nM. Regarding `CSc1cc(NCCS(=O)(=O)N2CCOCC2)c2ncc(-c3ccc(C(=O)NC4CC4)c(C)c3)n2n1` [Example 231, N-cyclopropyl-2-methyl-4-[6-(methylsulfanyl)-8-{[2-(morpholin-4-ylsulfonyl)ethyl]amino}imidazo[1,2-b]pyridazin-3-yl]benzamide], the IC50 amounted to 14.3 nM. In the case of `CC(C)CNc1cc(-c2ccc(C(=O)N(C)C)cc2)nn2c(-c3ccc(C(=O)NC4CC4)cc3)cnc12` [Example 109, 4-{3-[4-(Cyclopropylcarbamoyl)phenyl]-8-[(2-methylpropyl)amino]imidazo[1,2-b]pyridazin-6-yl}-N,N-dimethylbenzamide], the IC50 was determined as 2.1 nM. In the case of `CC(C)(O)CNc1cc(Oc2cccc(F)c2)nn2c(-c3ccc(C(=S)NC4CC4)cc3)cnc12` [Example 244, N-cyclopropyl-4-{6-(3-fluorophenoxy)-8-[(2-hydroxy-2-methylpropyl)amino]imidazo[1,2-b]pyridazin-3-yl}benzenecarbothioamide], the IC50 was 0.3 nM. As to `Cc1cc(-c2cnc3c(NCC(C)(C)O)cc(O[C@H]4CCNC4=O)nn23)ccc1C(=O)NC1CC1` [Example 263, N-cyclopropyl-4-(8-[(2-hydroxy-2-methylpropyl)amino]-6-{[(3S)-2-oxopyrrolidin-3-yl]oxy}imidazo[1,2-b]pyridazin-3-yl)-2-methylbenzamide], the concentration for half-maximal inhibition (IC50) came out at 32.4 nM. As to `CC(=O)NCCNc1cc(Oc2cccc(F)c2)nn2c(-c3ccc(C(=O)NC4CC4)c(C)c3)cnc12` [Example 504, 4-[8-{[2-(acetylamino)ethyl]amino}-6-(3-fluorophenoxy)imidazo[1,2-b]pyridazin-3-yl]-N-cyclopropyl-2-methyl-benzamide], the IC50 is 0.2 nM.

Turning to `CSc1cc(NCCC(F)(F)F)c2ncc(-c3ccc(C(=O)NC4CC4)c(C)c3)n2n1` [Example 203, N-cyclopropyl-2-methyl-4-{6-(methylsulfanyl)-8-[(3,3,3-trifluoropropyl)amino]imidazo[1,2-b]pyridazin-3-yl}benzamide], the IC50 was found to be 1.4 nM. In the case of `Cc1cc(-c2cnc3c(NCCCN4CCCCC4)cc(Oc4cccc(F)c4)nn23)ccc1C(=O)NC1CC1` [Example 505, N-cyclopropyl-4-[6-(3-fluoro-phenoxy)-8-{[3-(piperidin-1-yl)propyl]amino}imidazo[1,2-b]pyridazin-3-yl]-2-methyl-benzamide], the IC50 is 0.2 nM.

As to `COc1ccccc1Oc1cc(NCCC(F)(F)F)c2ncc(-c3ccc(C(=O)NC4CC4)c(C)c3)n2n1` [Example 223, N-cyclopropyl-4-{6-(2-methoxyphenoxy)-8-[(3,3,3-trifluoropropyl)amino]imidazo[1,2-b]pyridazin-3-yl}-2-methylbenzamide], the IC50 was 0.2 nM.
